# Counter-ions that a name gives are not always drawn.
# System: alpha-2-receptor
# Test: Radioligand binding, alpha-2 adrenoceptor, rat cerebral cortices, [3H]-rauwolscine
# Conditions: ratio Ki alpha-1/Ki alpha-2
# Protocol: (§1) The compounds were assessed for alpha-adrenergic receptor subtype selectivity by use of radioligand binding techniques as described previously (DeBernardis et.al. J. Med. Chem. 28, 1398 (1985)).
row,alpha-2 - Selectivity Ki alpha-1/Ki alpha-2,Compound
1,21,"Nc1ccc2c(c1)CCCC2CN1CCC(c2ccccc2)C1 (stereo not drawn) [Example 156, 6-Amino-1-(3-phenylpyrrolidino-1-methyl) tetralin dihydrochloride]"
2,45,"Fc1ccc2c(c1)CCCC2CN1CCC(c2cccs2)C1 (stereo not drawn) [Example 149, 6-Fluoro-1-(3-(2-thienyl)pyrrolidino-1-methyl) tetralin methanesulfonate]"
3,11,5-Methoxy-1-(3-phenylpyrrolidino-1-methyl) indane hydrochloride [Example 152]

# Molecular target: T1, alpha-1-receptor (Rattus norvegicus, UniProt P15823)
# T1 construct: rat liver homogenates; from tissue; host or cells: rat liver homogenate
# T1 sequence (P15823 1-515): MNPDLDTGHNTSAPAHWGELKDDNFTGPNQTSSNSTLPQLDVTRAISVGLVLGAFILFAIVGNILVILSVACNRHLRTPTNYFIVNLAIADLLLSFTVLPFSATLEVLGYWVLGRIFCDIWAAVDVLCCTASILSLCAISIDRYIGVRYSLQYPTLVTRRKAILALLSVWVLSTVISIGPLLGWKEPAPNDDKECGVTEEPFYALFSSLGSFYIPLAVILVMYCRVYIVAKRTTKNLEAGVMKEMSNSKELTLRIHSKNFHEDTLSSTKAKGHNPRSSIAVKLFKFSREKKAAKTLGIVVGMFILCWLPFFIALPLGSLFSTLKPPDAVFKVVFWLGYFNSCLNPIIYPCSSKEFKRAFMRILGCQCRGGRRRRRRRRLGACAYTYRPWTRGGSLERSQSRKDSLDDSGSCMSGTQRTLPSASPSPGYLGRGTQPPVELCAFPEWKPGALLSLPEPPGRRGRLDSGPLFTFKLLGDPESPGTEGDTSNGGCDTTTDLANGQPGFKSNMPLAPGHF
# Test: Radioligand binding, alpha-1 adrenoceptor, rat liver homogenates, [3H]-prazosin
# Conditions: not given
# Protocol: as §1
row,Compound,Ki [nM]
1,"COC(=O)[C@H]1[C@H]2C[C@H]3c4[nH]c5ccccc5c4CCN3C[C@H]2CC[C@@H]1O [Rauwolscine, reference compound]",392

# Same assay, conditions: rat liver homogenates, [3H]-prazosin; read-out: Ki alpha-1
row,Compound,Ki [nM]
1,"CCN(CCc1ccco1)CC1CCCc2cc(OC)ccc21 (stereo not drawn) [Example 43, 1-((N-Ethylamino)methyl-N-(2-(2-furyl)ethyl))-6-methoxy tetralin hydrochloride]",1400
2,"CCN(CCc1cccs1)CC1CCCc2cc(OC)ccc21 (stereo not drawn) [Example 41, 1-((N Ethylamino)methyl-N (2-(2-thienyl)ethyl))-6methoxy tetralin hydrochloride]",950
3,"CCN(CCc1cccc(F)c1)CC1CCCc2cc(OC)ccc21 (stereo not drawn) [Example 42, 1-((N Ethylamino)methyl-N-(2-(m-fluorophenyl)ethyl))-6-methoxy tetralin hydrochloride]",1050
4,"COc1ccc2c(c1)CCCC2CN(C)CCc1cccc(O)c1 (stereo not drawn) [Example 83, 1-((N-Methylamino)methyl-N-(2-(m-hydroxyphenyl)ethyl))-6-methoxy tetralin hydrochloride]",955
5,"CCN(CCc1cccs1)CC1CCCc2c1ccc1c2OCCO1 (stereo not drawn) [Example 168, 1-((N Ethylamino)methyl-N-(2-(2-thienyl)ethyl))-5,6-ethylenedioxy tetralin hydrochloride]",823
6,"COc1cc2c(cc1C)C(CN(C)CCc1ccco1)CCC2 (stereo not drawn) [Example 128, 1-((N-Methylamino)methyl-N-(2-(2-furyl)ethyl))6-methoxy-7-methyl tetralin hydrochloride]",855
7,"COc1ccc2c(c1)CCC2CN(C)CCc1cccs1 (stereo not drawn) [Example 37, 1-((N-Methylamino)methyl-N-(2-(2-thienyl)ethyl))-5-methoxy indane hydrochloride]",645
8,"COc1ccc2c(c1)CCCC2CN(C)CCc1cccn1C (stereo not drawn) [Example 12, 1-((N-Methylamino)methyl-N-(2-(N-methyl-2-pyrrolyl)ethyl))-6-methoxy tetralin fumarate]",1210
9,"COc1ccc2c(c1)CCCC2CN(C)CCc1cccc(N)c1 (stereo not drawn) [Example 67, 1-((N-Methylamino)methyl-N-(2-(m-aminophenyl)ethyl))-6-methoxy tetralin dihydrochloride]",1170
10,"COc1cc2c(cc1F)C(CN(C)CCc1ccco1)CCC2 (stereo not drawn) [Example 141, 1-((N-methylamino)methyl-N-(2-(2-furyl)ethyl))-6-methoxy-7-fluoro tetralin methanesulfonate]",880
11,"COc1ccc2c(c1)CCCC2CN(C)CCc1cccc(F)c1 (stereo not drawn) [Example 6b, 1-((N-methylamino)methyl-N-(2-(m-fluorophenyl)ethyl))-6-methoxy tetralin hydrochloride]",1180
12,"CCCN(CCc1cccs1)CC1CCCc2cc(OC)ccc21 (stereo not drawn) [Example 58, 1-((N-Propylamino)methyl)-N-(2-(2-thienyl)ethyl))-6-methoxy tetralin hydrochloride]",1830
13,"CN(CCc1ccccc1)CC1CCCc2cc(N)ccc21 (stereo not drawn) [Example 114, 1-((N-Methylaminomethyl-N-(2-phenylethyl))-6-aminotetralindihydrochloride]",725
14,"CCN(CCc1cccs1)CC1CCCc2c1ccc1c2OCO1 (stereo not drawn) [Example 164, 1-(N Ethylamino)methyl-N-(2-(2-thienyl)ethyl))-5,6-methylenedioxy tetralin hydrochloride]",954
15,"CN(CCc1cccc(N)c1)CC1CCCc2cc(O)ccc21 (stereo not drawn) [Example 68, 1-((N-Methylamino)methyl N-(2-(m-aminophenyl)ethyl))-6-hydroxy tetralin dihydrobromide]",1170
16,"COc1ccc2c(c1)CCCC2CN(C)CCC1CCCC1 (stereo not drawn) [Example 6f, 1-((N methylamino)methyl -N-(2-(cyclopentyl)ethyl))-6-methoxy tetralin hydrochloride]",2160
17,"CN(CCc1cccs1)CC1CCCc2ccccc21 (stereo not drawn) [Example 22, 1-((N-Methylamino)methyl-N-(2-(2-thienyl)ethyl)) tetralin hydrochloride]",695
18,"CN(CCc1cccc(F)c1)CC1CCCc2c1ccc1c2OCO1 (stereo not drawn) [Example 166, 1-((N-Methylamino)methyl-N (2-m-fluorophenethyl))-5,6-methylenedioxy tetralin methanesulfonate]",603

# The next lines start with the values.
row,Ki [nM],Compound
1,445,"CN(CCc1cccs1)CC1CCCc2c1ccc1c2OCO1 (stereo not drawn) [Example 23, 1-((N-Methylamino)methyl-N-(2-(2-thienyl)ethyl))-5,6-methylenedioxy tetralin hydrochloride]"
2,470,"CN(CCc1cccs1)CC1CCCc2c1ccc1c2OCCO1 (stereo not drawn) [Example 30, 1-((N Methylamino)methyl-N-(2-(2-thienyl)ethyl))-5,6-ethylenedioxy tetralin hydrochloride]"
3,444,"CN(CCc1cccs1)CC1CCCc2c1ccc(O)c2O (stereo not drawn) [Example 87, 1-((N-Methylamino)methyl-N-(2-(2-thienyl)ethyl))-5,6-dihydroxy tetralin hydrochloride]"
4,525,"CN(CCc1cccc(F)c1)CC1CCCc2ccccc21 (stereo not drawn) [Example 70, 1-((N Methylamino)methyl-N-(2-(mfluorophenyl)ethyl))-tetralin hydrochloride]"
5,495,"CN(CCc1cccc(O)c1)CC1CCCc2cc(O)ccc21 (stereo not drawn) [Example 82, 1-((N-Methylamino)methyl-N-(2-(m-hydroxyphenyl)ethyl))-6-hydroxy tetralin hydrochloride]"
6,125,"Nc1ccc2c(c1)CCCC2CN1CCC(c2ccccc2)C1 (stereo not drawn) [Example 156, 6-Amino-1-(3-phenylpyrrolidino-1-methyl) tetralin dihydrochloride]"
7,495,"COc1ccc2c(c1OC)CCCC2CN(C)CCc1cccs1 (stereo not drawn) [Example 86, 1-((N-Methylamino)methyl-N-(2-(2-thienyl)ethyl))-5,6-dimethoxy tetralin hydrochloride]"
8,330,"Cc1cc(O)c(O)c2c1C(CN(C)CCc1cccc(F)c1)CCC2 (stereo not drawn) [Example 34, 1-((N-Methylamino)methyl-N (2-(m-fluorophenyl)ethyl))-5,6-dihydroxy-8-methyl tetralin hydrobromide]"
9,590,"CCN(CCc1ccsc1)CC1CCCc2cc(OC)ccc21 (stereo not drawn) [Example 44, 1-((N-Ethylamino)methyl-N-(2-(3-thienyl)ethyl))-6-methoxy tetralin hydrochloride]"
10,580,"COc1ccc2c(c1)CCCC2CN(C)CCc1cccs1 (stereo not drawn) [Example 5, ((N-Methylamino)methyl-N-(2-(2-thienyl)ethyl)) 6-methoxy tetralin methanesulfonate]"
11,525,"COc1ccc2c(c1)C(CN(C)CCc1cccs1)CCC2 (stereo not drawn) [Example 27, 1-((N-Methylamino)methyl-N (2-(2-thienyl)ethyl))7-methoxy tetralin hydrochloride]"
12,565,"CN(CCc1cccs1)CC1CCCc2cc(O)ccc21 (stereo not drawn) [Example 7, 1-((N-Methylamino)methyl N-(2-(2-thienyl)ethyl)) 6-hydroxy tetralin hydrochloride]"
13,462,"CCN(CCc1cccc(F)c1)CC1CCCc2c1ccc1c2OCO1 (stereo not drawn) [Example 165, 1-((N-Ethylamino)methyl-N-(2-m-fluorophenethyl))-5,6-methylenedioxy tetralin hydrochloride]"
14,245,"c1csc(C2CCN(CC3CCCc4c3ccc3c4OCO3)C2)c1 (stereo not drawn) [Example 144, 5,6-Methylenedioxy-1-(3-(2-thienyl)pyrrolidino-1-methyl) tetralin methanesulfonate]"
15,79,"Fc1ccccc1C1CCN(CC2CCCc3c2ccc2c3OCO2)C1 (stereo not drawn) [Example 176a, 5,6-Methylenedioxy-1-(3-(o-fluorophenyl)pyrrolidino-1-methyl) tetralin methanesulfonate]"
16,175,"COc1cc2c(c(OC)c1)C(CN(C)CCc1cccs1)CCC2 (stereo not drawn) [Example 26, 1-((N Methylamino)methyl-N-(2-(2-thienyl)ethyl))6,8-dimethoxy tetralin hydrochloride]"
17,315,"CN(CCc1ccccc1)CC1CCCc2ccccc21 (stereo not drawn) [Example 88, 1-((N-Methylamino)methyl-N-(2-phenethyl))-tetralin hydrochloride]"
18,260,"CN(CCc1cccc(F)c1)CC1CCCc2c1ccc(O)c2O (stereo not drawn) [Example 85, 1-((N-Methylamino)methyl-N-(2-(m-fluorophenyl)ethyl))-5,6-dihydroxy tetralin hydrochloride]"
19,500,"COc1ccc2c(c1)CCCC2CN(C)CCc1ccsc1 (stereo not drawn) [Example 6d, 1-((N-methylamino)methyl-N-(2-(3-thienyl)ethyl))-6-methoxy tetralin hydrochloride]"
20,530,"CN(CCc1cccs1)CC1CCCc2c1ccc(O)c2I (stereo not drawn) [Example 115, 1-((N-Methylamino)methyl-N-(2-(2-thienyl)ethyl))-5-iodo-6-hydroxy tetralin hydrochloride]"

# — US5086074A, “1-aminomethyl-1,2,3,4-tetrahydronaphthalenes” (Abbott Laboratories, priority 1990, dated 1992)
